# Values quoted from earlier work in patent publication US20110275602A1, “PHARMACEUTICAL ASSOCIATION, COMPOSITIONS FOR TOPICAL USE, FORMS OF DOSAGE AND METHOD OF TREATMENT OF ACUTE OR CHRONIC OTITIS IN PET ANIMALS” (priority 2007, published 2011).
# Tested on: acute external otitis
# Details: humans; literature
smiles,measurement,value
O=C(O)c1cn(C2CC2)c2cc(N3CCNCC3)c(F)cc2c1=O [ciprofloxacin],efficacy for the treatment of acute external otitis,77%
